This passage reports IC50 results from patent US20250163047A1, “HETEROCYCLIC COMPOUNDS, COMPOSITIONS THEREOF, AND METHODS OF TREATMENT THEREWITH” (BeiGene, Ltd., priority 2022, published 2025).

The target of assay [1] is T1, Cbl (aa49-434) (Homo sapiens, UniProt P22681).
T1 construct: Cbl (aa49-434, in-house); made in house
T1 sequence (P22681 49-434): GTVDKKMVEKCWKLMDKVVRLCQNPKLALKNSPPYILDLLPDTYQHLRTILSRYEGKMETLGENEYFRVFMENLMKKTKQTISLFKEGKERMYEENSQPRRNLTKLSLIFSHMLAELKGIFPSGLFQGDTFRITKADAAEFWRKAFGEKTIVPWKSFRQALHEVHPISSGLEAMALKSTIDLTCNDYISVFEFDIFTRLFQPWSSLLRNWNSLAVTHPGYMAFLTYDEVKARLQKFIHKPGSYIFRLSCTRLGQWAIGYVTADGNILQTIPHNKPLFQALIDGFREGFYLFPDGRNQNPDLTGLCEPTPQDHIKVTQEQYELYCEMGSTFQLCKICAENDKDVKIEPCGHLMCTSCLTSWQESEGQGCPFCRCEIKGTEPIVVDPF
The assay can be described thus: Co-expressed Cbl with BirA biochemical assay (CBL/E2-Ub binding, HTRF). The note with it: 0.6 nM Cbl co-expressed with BirA, read-out: co-express CBL/E2-Ub-binding assay IC50. From the text: (§1) The assay in the absence of a Cbl-b/Cbl inhibitor, where phosphorylation of Cbl-b/Cbl by the Src kinase allows UbcH5B-Ub to bind to Cbl-b/Cbl and brings the Bodipy-Fluorescein tagged ubiquitin in proximity to the streptavidin-terbium bound to the N-terminal biotinylated Avi-tagged Cbl-b/Cbl. […] The lack of a FRET signal indicates Cbl-b/Cbl is inhibited by the Cbl-b/Cbl inhibitor.

For assay [2], the target named is T2, Cbl-b (aa36-427) (Homo sapiens, UniProt Q13191).
T2 construct: Cbl-b (aa36-427, in-house); made in house
The assay can be described thus: Co-expressed Cbl-b with BirA biochemical assay (CBLB/E2-Ub binding, HTRF). The note with it: 0.6 nM Cbl-b co-expressed with BirA, HTRF; read-out: co-express CBLB/E2-Ub-binding assay IC50.
From the text: as §1
In general terms: Time-resolved FRET reads energy transfer from a long-lived donor to a nearby acceptor.

T2 sequence (Q13191 36-427): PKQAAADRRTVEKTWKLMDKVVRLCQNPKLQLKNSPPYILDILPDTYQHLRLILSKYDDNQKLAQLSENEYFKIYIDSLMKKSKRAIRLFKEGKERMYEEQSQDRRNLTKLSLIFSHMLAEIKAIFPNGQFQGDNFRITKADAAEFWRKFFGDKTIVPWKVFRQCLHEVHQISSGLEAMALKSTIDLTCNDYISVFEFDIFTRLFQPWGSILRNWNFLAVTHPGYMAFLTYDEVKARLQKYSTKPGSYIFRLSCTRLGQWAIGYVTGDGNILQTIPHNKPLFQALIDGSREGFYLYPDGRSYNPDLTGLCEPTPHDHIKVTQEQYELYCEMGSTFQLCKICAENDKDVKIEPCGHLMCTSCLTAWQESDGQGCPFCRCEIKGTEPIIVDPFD

On to `CCn1cnnc1[C@]1(c2cccc(NC(=O)c3cc(CNC4(C)CC4)cn4ccnc34)c2)C[C@H](C)C1` [Compound A85, N-(3-((1s, 3s)-1-(4-ethyl-4H-1,2,4-triazol-3-yl)-3-methylcyclobutyl)phenyl)-6-(((1-methylcyclopropyl)amino)methyl)imidazo[1,2-a]pyridine-8-carboxamide], for which the IC50 turned out to be 26 nM in assay [1] and 3.4 nM in assay [2].
The matching figures for `C[C@H]1CCCN(Cc2cc(C(=O)Nc3cccc([C@]4(c5nncn5C)C[C@@H](CC#N)C4)c3)nc3c2NCC32CC2)C1` [Compound C19, N-(3-((1s,3R)-3-(cyanomethyl)-1-(4-methyl-4H-1,2,4-triazol-3yl)cyclobutyl)phenyl)-7′-(((S)-3-methylpiperidin-1-yl)methyl)-1′,2′-dihydrospiro[cyclopropane-1,3′-pyrrolo[3,2-b]pyridine]-5′-carboxamide]: 6 nM and 2.7 nM.
In the case of `Cn1cnnc1[C@]1(c2cncc(NC(=O)c3cc(CNC4(C)CC4)cn4c(F)cnc34)c2)C[C@H](C)C1` [Compound A74, 3-fluoro-N-(5-((1s, 3s)-3-methyl-1-(4-methyl-4H-1,2,4-triazol-3-yl)cyclobutyl)pyridin-3-yl)-6-(((1-methylcyclopropyl)amino)methyl)imidazo[1,2-a]pyridine-8-carboxamide], the IC50 in assay [1] came out at 4.2 nM; in assay [2], 1.2 nM.
`C[C@H]1CCCN(Cc2cc(C(=O)Nc3cccc([C@]4(c5nncn5C)C[C@@H](CC#N)C4)c3)nc3cc[nH]c23)C1` [Compound B5, N-(3-((1s,3R)-3-(cyanomethyl)-1-(4-methyl-4H-1,2,4-triazol-3-yl)cyclobutyl)phenyl)-7-(((S)-3-methylpiperidin-1-yl)methyl)-1H-pyrrolo[3,2-b]pyridine-5-carboxamide]: the IC50 turned out to be 16 nM in assay [1] and 1.6 nM in assay [2].
Taken in the same sequence, the figures for `Cn1cnnc1[C@]1(c2cccc(NC(=O)c3cc(CNC4(C)CCC4)c4c(n3)C3(CC3)CN4)c2)C[C@H](CC#N)C1` [Compound C31, N-(3-((1s, 3s)-3-(cyanomethyl)-1-(4-methyl-4H-1,2,4-triazol-3-yl)cyclobutyl)phenyl)-7′-(((1-methylcyclobutyl)amino)methyl)-1′,2′-dihydrospiro[cyclopropane-1,3′-pyrrolo[3,2-b]pyridine]-5′-carboxamide] were 17 nM and 3.9 nM.
Taken in the same sequence, the figures for `C[C@@H]1CN(Cc2cc(C(=O)Nc3cccc([C@]4(Cc5nncn5C)C[C@@H](C#N)C4)c3)c3nccn3c2)CC[C@@H]1F` [Compound A48, N-(3-((1r,3R)-3-cyano-1-((4-methyl-4H-1,2,4-triazol-3-yl)methyl)cyclobutyl)phenyl)-6-(((3R,4S)-4-fluoro-3-methylpiperidin-1-yl)methyl)imidazo[1,2-a]pyridine-8-carboxamide] were 2.7 nM and 0.8 nM.
Taken in the same sequence, the figures for `CC(C)CNCc1cc(C(=O)Nc2cccc([C@]3(c4nncn4C)C[C@@H](C)C3)c2)nc2cc[nH]c12` [Compound B1, 7-((isobutylamino)methyl)-N-(3-((1s, 3s)-3-methyl-1-(4-methyl-4H-1,2,4-triazol-3-yl)cyclobutyl)phenyl)-1H-pyrrolo[3,2-b]pyridine-5-carboxamide] were 2.1 nM and 0.7 nM.
For `Cn1cnnc1[C@]1(c2cncc(NC(=O)c3cc(CNC4(C)CCC4)cn4c(Cl)cnc34)c2)C[C@H](C)C1` [Compound A82, 3-chloro-N-(5-((1s, 3s)-3-methyl-1-(4-methyl-4H-1,2,4-triazol-3-yl)cyclobutyl)pyridin-3-yl)-6-(((1-methylcyclobutyl)amino)methyl)imidazo[1,2-a]pyridine-8-carboxamide], the IC50 came out at 1.8 nM in assay [1] and 0.7 nM in assay [2].
